For test [1], the system named is MT4. As to the kind of experiment: Cytotoxicity by the MTT assay in MT-4 cells at a dose of 100 ug/ml; No significant activity. Format: functional, cell-based. Particulars: Homo sapiens.
In test [2] the test system is MT4. The test can be described thus: Antiviral activity expressed as ability to prevent the HIV-induced cytopathic effect in MT-4 cells at a dose of 100 ug/ml; No significant activity. The settings on record: Homo sapiens. The class given is functional, cell-based. For orientation: Damage to the host cells serves as the signal in cytopathic effect assays.

For the compound `Cc1cn(C2CC[C@](CO)(CF)O2)c(=O)[nH]c1=O` (single isomer, unassigned), the Activity entry in the test with MT4 [1] and in the test on MT4 [2] was “No significant activity” throughout.
Turning to `Cc1cn([C@@H]2CCC(CO)(CF)O2)c(=O)[nH]c1=O` (single isomer, unassigned), the Activity result in the test with MT4 [1] and with MT4 [2] was “No significant activity” each time.
